Laboratory results reported in patent EP2567959B1, “6-(4-HYDROXY-PHENYL)-3-STYRYL-1H-PYRAZOLO[3,4-B]PYRIDINE-4-CARBOXYLIC ACID AMIDE DERIVATIVES AS KINASE INHIBITORS” (SANOFI, priority 2011, dated 2013).

Biological target: T1, human full-length recombinant PKC βII (Homo sapiens, UniProt P05771)
T1 construct: Active human full-length recombinant PKC βII; purchased Invitrogen GmbH, Darmstadt, Germany
Assay: Determination of PKC βII inhibition (Caliper mobility-shift kinase assay, phosphorylation of fluorescein peptide substrate)
Assay type: biochemical
Conditions: final compound concentration 1.14 µM (±0.15 µM); 60 min incubation at 32 °C
Experimental: Determination of PKC βII inhibition
PKC βII inhibition was determined according to the following protocol:
Active human full-length recombinant PKC βII and the peptide substrate, Fluorescein-RFARKGSLRQKNV, were purchased from Invitrogen GmbH, Darmstadt, Germany. Adenosine-5'-triphosphate (ATP), bovine serum albumine (BSA), dimethylsulphoxide (DMSO), 4-(2-hydroxyethyl)piperazine-1-ethanesulfonic acid (Hepes), Triton X-100, 1,2-Dioleoyl-sn-glycerol (DAG), L-α-Phosphatidyl-L-serine (PS), calcium chloride (CaCl2), and Pluronic F-68 were purchased from Sigma-Aldrich, Munich, Germany. Magnesium chloride, 1 M sodium hydroxide solution, 1M hydrochloric acid solution and EDTA were obtained from Merck Biosciences, Darmstadt, Germany.
Test compounds were diluted to three times the test concentration in buffer 1 (30 mM Hepes-NaOH, pH 7.4, 0.01 % Pluronic F-68 and 3 % (v/v) DMSO). The PKC βII enzyme was diluted to a concentration of 30 ng/ml in buffer 2 (30 mM Hepes-NaOH, pH 7.4, 15 mM MgCl2,150 µM CaCl2, 150 µg/ml PS, 60 µg/ml DAG, and 0.045 % (w/v) Triton X-100). The peptide substrate and ATP were diluted to concentrations of 3 µM and 120 µM, respectively, in buffer 2. Two µl of the compound solution were mixed with 2 µl of the diluted enzyme in a 384-well small volume microtiter plate (Greiner, Bio-One, Frickenhausen, Germany), and the kinase reaction was initiated by addition of 2 µl of the solution containing peptide substrate and ATP. After 60 min incubation at 32 °C, the reaction was stopped by addition of 20 µl of a solution containing 130 mM Hepes-NaOH, pH 7.4, 0.0195 % (v/v) Brij-35, 6.5 mM EDTA, 0.13 % chip coating reagent 3 (Caliper Lifescience Inc, Hopkinton, MA) and 6.5 % (v/v) DMSO. Phosphorylation of the substrate peptide was then detected on a Caliper 3000 instrument essentially as described by Pommereau et al (J. Biomol. Screening 2004, 9(5), 409-416). Separation conditions were as follows: Pressure -0.8 psi, upstream voltage - 3000 V, downstream voltage -800 V. Positive controls (buffer 1 instead of compound) and negative controls (buffer 1 instead of compound and buffer 2 instead of kinase solution) were run in parallel on each plate. Fractional turnover (R) was determined as the height of the peak of the phosphorylated peptide product divided by the sum of the unphosphorylated substrate and phosphorylated product peak heights. Percent-inhibition values for the test compounds were determined using the formula % Inhibition = 100*(1-(Rcompound-Rnegative control)/(Rpositive control-Rnegative control). [formula]
In the following table % inhibition values observed with example compounds at a final concentration of 1.14 µM (±0.15 µM) are listed: […]

T1 sequence (P05771 1-673 isoform P05771-2): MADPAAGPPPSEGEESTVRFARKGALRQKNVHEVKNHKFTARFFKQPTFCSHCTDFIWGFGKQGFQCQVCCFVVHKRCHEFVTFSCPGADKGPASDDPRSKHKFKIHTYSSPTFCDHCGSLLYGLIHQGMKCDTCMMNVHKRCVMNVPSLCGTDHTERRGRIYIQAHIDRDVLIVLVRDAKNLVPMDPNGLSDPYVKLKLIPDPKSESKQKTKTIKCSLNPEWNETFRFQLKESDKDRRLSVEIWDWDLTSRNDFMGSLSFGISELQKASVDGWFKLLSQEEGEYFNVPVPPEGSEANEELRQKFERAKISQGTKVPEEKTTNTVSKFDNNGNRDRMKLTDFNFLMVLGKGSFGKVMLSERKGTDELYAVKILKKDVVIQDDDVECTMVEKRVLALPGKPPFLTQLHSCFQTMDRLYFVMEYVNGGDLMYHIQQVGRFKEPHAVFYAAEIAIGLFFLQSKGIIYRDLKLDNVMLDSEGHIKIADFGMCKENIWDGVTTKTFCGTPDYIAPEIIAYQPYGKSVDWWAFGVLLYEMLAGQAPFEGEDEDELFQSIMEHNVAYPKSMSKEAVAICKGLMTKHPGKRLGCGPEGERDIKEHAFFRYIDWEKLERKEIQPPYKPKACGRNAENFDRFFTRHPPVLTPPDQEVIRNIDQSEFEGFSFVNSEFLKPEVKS

inhibition at 1.14 µM	Compound
97%	O=C(c1cc(-c2ccc(O)cc2)nc2[nH]nc(/C=C/c3cccc(C(F)(F)F)c3)c12)N1CCNCC1 [Example 46, {6-(4-Hydroxy-phenyl)-3-[(E)-2-(3-trifluoromethylphenyl)-vinyl]-1 H-pyrazolo[3,4-b]pyridin-4-yl}-piperazin-1-yl-methanone]
98%	COc1ccccc1/C=C/c1n[nH]c2nc(-c3ccc(O)cc3)cc(C(=O)N3CCNCC3)c12 [Example 60, {6-(4-hydroxy-phenyl)-3-[(E)-2-(2-methoxy-phenyl)-vinyl]-1H-pyrazolo[3,4-b]pyridin-4-yl}-piperazin-1-yl-methanone]
98%	O=C(c1cc(-c2ccc(O)cc2)nc2[nH]nc(/C=C/c3cc(Cl)cc(Cl)c3)c12)N1CCNCC1 [Example 70, [3-[(E)-2-(3,5-Dichloro-phenyl)-vinyl]-6-(4-hydroxy-phenyl)-1H-pyrazolo[3,4-b]pyridin-4-yl]-piperazin-1-yl-methanone]
95%	CCc1ccc(/C=C/c2n[nH]c3nc(-c4ccc(O)cc4)cc(C(=O)N4CCNCC4)c23)cc1 [Example 53, [3-[(E)-2-(4-Ethyl-phenyl)-vinyl]-6-(4-hydroxy-phenyl)-1H-pyrazolo[3,4-b]pyridin-4-yl]-piperazin-1-yl-methanone]
99%	O=C(c1cc(-c2ccc(O)cc2)nc2[nH]nc(/C=C/c3ccccc3F)c12)N1CCNCC1 [Example 72, [3-[(E)-2-(2-Fluoro-phenyl)-vinyl]-6-(4-hydroxy-phenyl)-1H-pyrazolo[3,4-b]pyridin-4-yl]-piperazin-1-yl-methanone]
100%	COc1cccc(/C=C/c2n[nH]c3nc(-c4ccc(O)cc4)cc(C(=O)N4CCNCC4)c23)c1 [Example 56, {6-(4-Hydroxy-phenyl)-3-[(E)-2-(3-methoxyphenyl)-vinyl]-1H-pyrazolo[3,4-b]pyridin-4-yl}-piperazin-1-yl-methanone]
66%	O=C(c1cc(-c2ccc(O)cc2)nc2[nH]nc(/C=C/c3ccc(C(F)(F)F)cc3)c12)N1CCNCC1 [Example 42, {6-(4-Hydroxy-phenyl)-3-[(E)-2-(4-trifluoromethylphenyl)-vinyl]-1 H-pyrazolo[3,4-b]pyridin-4-yl}-piperazin-1-yl-methanone]
98%	Cc1cc(/C=C/c2n[nH]c3nc(-c4ccc(O)cc4)cc(C(=O)N4CCNCC4)c23)ccc1O [Example 47, [3-[(E)-2-(4-Hydroxy-3-methyl-phenyl)-vinyl]-6-(4-hydroxy-phenyl)-1H-pyrazolo[3,4-b]pyridin-4-yl]-piperazin-1-yl-methanone]
100%	CN(C)Cc1cccc(/C=C/c2n[nH]c3nc(-c4ccc(O)cc4)cc(C(=O)N4CCNCC4)c23)c1 [Example 14, [3-[(E)-2-(3-Dimethylaminomethyl-phenyl)-vinyl]-6-(4-hydroxy-phenyl)-1H-pyrazolo[3,4-b]pyridin-4-yl]-piperazin-1-yl-methanone]
91%	O=C(c1cc(-c2ccc(O)cc2)nc2[nH]nc(/C=C/c3ccc(F)cc3Cl)c12)N1CCNCC1 [Example 52, [3-[(E)-2-(2-Chloro-4-fluorophenyl)-vinyl]-6-(4-hydroxy-phenyl)-1H-pyrazolo[3,4-b]pyridin-4-yl]-piperazin-1-yl-methanone]
99%	CS(=O)(=O)c1ccc(/C=C/c2n[nH]c3nc(-c4ccc(O)cc4)cc(C(=O)N4CCNCC4)c23)cc1 [Example 24, {6-(4-hydroxy-phenyl)-3-[(E)-2-(4-methanesulfonyl-phenyl)-vinyl]-1H-pyra-zolo[3,4-b]pyri-din-4-yl}-pipe-razin-1-yl-methanone]
81%	O=C(c1cc(-c2ccc(O)cc2)nc2[nH]nc(CCC3CCCCC3)c12)N1CCNCC1 [Example 36, [3-(2-cyclohexyl-ethyl)-6-(4-hydroxy-phenyl)-1H-pyrazolo[3,4-b]pyridin-4-yl]-piperazin-1-yl-methanone]
99%	CCOc1ccc(/C=C/c2n[nH]c3nc(-c4ccc(O)cc4)cc(C(=O)N4CCNCC4)c23)cc1 [Example 67, [3-[(E)-2-(4-Ethoxy-phenyl)-vinyl]-6-(4-hydroxy-phenyl)-1 H-pyrazolo[3,4-b]pyridin-4-yl]-piperazin-1-yl-methanone]
99%	CN(C)C(=O)c1cccc(/C=C/c2n[nH]c3nc(-c4ccc(O)cc4)cc(C(=O)N4CCNCC4)c23)c1 [Example 31, 3-{(E)-2-[6-(4-Hydroxy-phenyl)-4-(piperazine-1-carbonyl)-1H-py-razolo[3,4-b]py-ridin-3-yl]-vinyl}-N,N-dimethyl-benzamide]
98%	COc1cc(/C=C/c2n[nH]c3nc(-c4ccc(O)cc4)cc(C(=O)N4CCNCC4)c23)cc(OC)c1OC [Example 62, {6-(4-hydroxy-phenyl)-3-[(E)-2-(3,4,5-trimethoxy-phenyl)-vinyl]-1H-pyrazolo[3,4-b]pyridin-4-yl}-piperazin-1-yl-methanone]
98%	CN(C)C(=O)c1cccc(/C=C/c2n[nH]c3nc(-c4ccc(O)cc4)cc(C(=O)N4CCNCC4(C)C)c23)c1 [Example 34, 3-{(E)-2-[4-(2,2-Dimethyl-piperazine-1-carbonyl)-6-(4-hydroxy-phenyl)-1H-pyrazolo[3,4-b]pyridin-3-yl]-vinyl}-N,N-dimethyl-benzamide]
86%	Cc1cc(F)ccc1/C=C/c1n[nH]c2nc(-c3ccc(O)cc3)cc(C(=O)N3CCNCC3)c12 [Example 61, [3-[(E)-2-(4-Fluoro-2-methyl-phenyl)-vinyl]-6-(4-hydroxy-phenyl)-1H-pyrazolo[3,4-b]pyridin-4-yl]-piperazin-1-yl-methanone]
97%	O=C(c1cc(-c2ccc(O)cc2)nc2[nH]nc(/C=C/c3ccccc3)c12)N1CCNC2(CCCC2)C1 [Example 79, (6,9-Diaza-spiro-[4.5]dec-9-yl)-[6-(4-hydroxy-phenyl)-3-((E)-styryl)-1H-pyra-zolo[3,4-b]py-ridin-4-yl]-methanone]
87%	CC[C@H]1CNCCN1C(=O)c1cc(-c2ccc(O)cc2)nc2[nH]nc(/C=C/c3ccccc3)c12 [Example 10, ((S)-2-Ethyl-piperazin-1-yl)-[6-(4-hydroxy-phenyl)-3-((E)-styryl)-1H-pyrazolo[3,4-b]pyridin-4-yl]-methanone]
110%	O=C(c1cc(-c2ccc(O)cc2Cl)nc2[nH]nc(/C=C/c3ccccc3)c12)N1CCNCC1 [Example 13, [6-(2-Chloro-4-hydroxy-phenyl)-3-((E)-styryl)-1 H-pyrazolo[3,4-b]pyridin-4-yl]-piperazin-1-yl-methanone]
99%	CC1(C)CN(C(=O)c2cc(-c3ccc(O)cc3)nc3[nH]nc(/C=C/c4ccccc4)c23)CCN1 [Example 4, (3,3-Dimethyl-piperazin-1-yl)-[6-(4-hydroxy-phenyl)-3-((E)-styryl)-1H-pyrazolo[3,4-b]pyridin-4-yl]-methanone]
94%	Cc1ccccc1/C=C/c1n[nH]c2nc(-c3ccc(O)cc3)cc(C(=O)N3CCNCC3)c12 [Example 69, [6-(4-Hydroxy-phenyl)-3-((E)-2-o-tolyl-vinyl)-1H-pyrazolo[3,4-b]pyridin-4-yl]-piperazin-1-yl-methanone]
99%	CN1Cc2cc(/C=C/c3n[nH]c4nc(-c5ccc(O)cc5)cc(C(=O)N5CCNCC5)c34)ccc2C1=O [Example 32, 5-{(E)-2-[6-(4-Hydroxy-phenyl)-4-(piperazine-1-carbonyl)-1H-py-razolo[3,4-b]pyri-din-3-yl]-vinyl}-2-methyl-2,3-di-hydro-isoindol-1-one]
54%	CN(C)C(=O)CN1CCN(C(=O)c2cc(-c3ccc(O)cc3)nc3[nH]nc(/C=C/c4ccccc4)c23)CC1 [Example 84, 2-{4-[6-(4-Hydroxy-phenyl)-3-((E)-styryl)-1H-pyrazolo[3,4-b]-pyridine-4-carbo-nyl]-piperazin-1-yl}-N,N-dimethyl-acetamide]
99%	O=C(c1cc(-c2ccc(O)cc2)nc2[nH]nc(/C=C/c3cccc4c3NCC4)c12)N1CCNCC1 [Example 33, [3-[(E)-2-(2,3-Dihydro-1H-indol-7-yl)-vinyl]-6-(4-hydroxyphenyl)-1H-pyrazolo[3,4-b]-pyridin-4-yl]-piperazin-1-yl-methanone]
